Patent publication US20230270772A1, “USE OF 5'-METHYLTHIOADENOSINE IN PREPARATION OF OBESITY-SUPPRESSING DRUGS OR HEALTH CARE PRODUCTS” (Zhejiang Chinese Medical University, priority 2022, published 2023)

Columns and labels:
[1] = system: high-fat diet-induced obesity in C57BL/6 mice; assay: Suppression of high-fat diet-induced obesity, gavage for 9 weeks; type: in vivo; conditions: 100 mg/kg/day by gavage
Method: (§1) Eight-week-old C57BL/6 mice were divided into three groups (a control group, a model group, and a drug-treated group) (FIG. 4A). The mice of control group were fed with a low-fat diet, and the mice of model group were fed with a high-fat diet ad libitum. The mice of drug-treated group were fed with high-fat diet+5′-methylthioadenosine (100 mg/kg/day) by gavage for 9 weeks, during which the body weight of the mice was recorded, and OGTT and ITT thereof were conducted.

[2] = system: high-fat diet-induced obesity in C57/BL mice; assay: Comparison of MTA and adenosine in suppressing high-fat diet-induced obesity; type: in vivo; conditions: 8-week-old C57BL/6 mice, tube-feeding 100 mg/kg/day, FIG. 2A-2D
From the text: Experimental animals: 8-week-old C57BL/6 mice; Diets and drugs: low-fat diet (10% kcal as fat, product #D12450J, Research Diets), high-fat diet (60% kcal as fat, product #D12492, Research Diets), MTA, and adenosine.

[3] = system: high-fat diet-induced obesity in C57BL/6 mice; assay: Suppression of high-fat diet-induced obesity, gavage for 11 weeks; type: in vivo; conditions: 50 and 100 mg/kg/day by gavage
Method: as §1, with “group).” for “group) (FIG. 4A).”, “diet,” for “diet, and”, “diet, and the” for “diet ad libitum. The”, “(50 and 100” for “(100”, “11” for “9”

HepG2 hepatoma cells = assay: Suppression of uric acid-induced lipogenesis in HepG2 hepatoma cells (oil red staining); type: cell-based; conditions: uric acid 120 μg/mL + 0.05, 0.1, 0.5, 1.0 and 5.0 μg/mL for 24 h, FIG. 3
Method: HepG2 hepatoma cells were induced to synthesize fat by uric acid (120 μg/mL). After 24 h, the cells were divided into two groups for testing. The cells of model group continued to be induced with uric acid (120 μg/mL) for 24 h.

SMILES | high-fat diet-induced obesity (body weight) ([1]; FIG. 4B) | oral glucose tolerance and insulin tolerance (OGTT, ITT) ([1]; FIG. 4H, 4I) | liver lipogenesis and gains of subcutaneous and visceral fats ([1]; after sacrifice, FIG. 4C-4G) | obesity-suppressing effect (body weight, liver weight, subcutaneous and visceral fat weight) [2] | high-fat diet-induced obesity (body weight) ([3]; FIG. 5A, 5B) | oral glucose tolerance and insulin tolerance (OGTT, ITT) ([3]; FIG. 5G-5J) | liver lipogenesis and gains of subcutaneous and visceral fats (perirenal, testicular) ([3]; after sacrifice, FIG. 5C-5F) | uric acid-induced lipogenesis (amount of synthetic fat, oil red staining) (HepG2 hepatoma cells)
CSC[C@H]1O[C@@H](n2cnc3c(N)ncnc32)[C@H](O)[C@@H]1O [5′-methylthioadenosine, 5′-Methylthioadenosine] | significantly suppressing high-fat diet-induced obesity | improving oral glucose tolerance and insulin tolerance in mice | suppressing the liver lipogenesis and the gains of subcutaneous fats and visceral fats | significantly better than that of adenosine | significantly suppressing high-fat diet-induced obesity, with a concentration gradient effect | improving oral glucose tolerance and insulin tolerance in mice | suppressing the liver lipogenesis and the gains of subcutaneous fats and visceral fats, with a concentration gradient effect | significantly inhibiting uric acid-induced lipogenesis in HepG2 cells with a concentration gradient effect
Nc1ncnc2c1ncn2[C@@H]1O[C@H](CO)[C@@H](O)[C@H]1O [adenosine] | – | – | – | shown to inhibit the body weight and liver weight gains and fat accumulation in mice | – | – | – | –
